Source: ChEMBL document CHEMBL1201862, “PubChem BioAssay data set” (2004)
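Protocol summary: plate cells (96-well), add compound at 5 concentrations, incubate 48 h, interpolate endpoints linearly. At the GI50, growth is halved.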 Active and inactive are the calls of the source. Rule as the data show it: active = GI50 up to about 1.1 µM and inactive = higher.

Tests used:
Assay in all cases: NCI tumour cell line growth inhibition, 48 h
786-0 = tested on: 786-0
A498 = tested on: A498
A549 = tested on: A549
ACHN = tested on: ACHN
CAKI-1 = tested on: CAKI-1
CCRF-CEM = tested on: CCRF-CEM
COLO 205 = tested on: COLO 205
DU-145 = tested on: DU-145
EKVX = tested on: EKVX
HCC 2998 = tested on: HCC 2998
HCT-116 = tested on: HCT-116
HCT-15 = tested on: HCT-15
HL-60 = tested on: HL-60
HOP-62 = tested on: HOP-62
HOP-92 = tested on: HOP-92
HT-29 = tested on: HT-29
Hs-578T = tested on: Hs-578T
K562 = tested on: K562
KM12 = tested on: KM12
LOX IMVI = tested on: LOX IMVI
M14 = tested on: M14
MDA-MB-231 = tested on: MDA-MB-231
MDA-MB-435 = tested on: MDA-MB-435
MDA-N = tested on: MDA-N
MOLT-4 = tested on: MOLT-4
Malme-3M = tested on: Malme-3M
NCI-H226 = tested on: NCI-H226
NCI-H23 = tested on: NCI-H23
NCI-H460 = tested on: NCI-H460
NCI/ADR-RES = tested on: NCI/ADR-RES
OVCAR-3 = tested on: OVCAR-3
OVCAR-4 = tested on: OVCAR-4
OVCAR-5 = tested on: OVCAR-5
OVCAR-8 = tested on: OVCAR-8
PC-3 = tested on: PC-3
RPMI-8226 = tested on: RPMI-8226
RXF 393 = tested on: RXF 393
SF-268 = tested on: SF-268
SF-295 = tested on: SF-295
SF-539 = tested on: SF-539
SK-MEL-28 = tested on: SK-MEL-28
SK-MEL-2 = tested on: SK-MEL-2
SK-MEL-5 = tested on: SK-MEL-5
SK-OV-3 = tested on: SK-OV-3
SN12C = tested on: SN12C
SNB-19 = tested on: SNB-19
SNB-75 = tested on: SNB-75
SR = tested on: SR
SW-620 = tested on: SW-620
T47D = tested on: T47D
TK-10 = tested on: TK-10
U-251 = tested on: U-251
UACC-257 = tested on: UACC-257
UACC-62 = tested on: UACC-62
UO-31 = tested on: UO-31
IGROV-1 = tested on: IGROV-1
MCF7 = tested on: MCF7
NCI-H522 = tested on: NCI-H522

Cn1cc(C(=O)c2nccc3c2cnc2ccccc23)ccc1=O
GI50 (786-0): > 100 µM (inactive)
GI50 (A498): > 100 µM (inactive)
GI50 (A549): 56.1 µM (inactive)
GI50 (ACHN): 12.2 µM (inactive)
GI50 (CAKI-1): 13.2 µM (inactive)
GI50 (CCRF-CEM): > 100 µM (inactive)
GI50 (COLO 205): 69.5 µM (inactive)
GI50 (DU-145): > 100 µM (inactive)
GI50 (EKVX): > 100 µM (inactive)
GI50 (HCC 2998): > 100 µM (inactive)
GI50 (HCT-116): 31.9 µM (inactive)
GI50 (HCT-15): > 100 µM
GI50 (HL-60): > 100 µM (inactive)
GI50 (HOP-62): 25.9 µM (inactive)
GI50 (HOP-92): > 100 µM (inactive)
GI50 (HT-29): > 100 µM (inactive)
GI50 (Hs-578T): > 100 µM (inactive)
GI50 (K562): > 100 µM (inactive)
GI50 (KM12): > 100 µM (inactive)
GI50 (LOX IMVI): > 100 µM (inactive)
GI50 (M14): > 100 µM (inactive)
GI50 (MDA-MB-231): > 100 µM (inactive)
GI50 (MDA-MB-435): > 100 µM (inactive)
GI50 (MDA-N): > 100 µM (inactive)
GI50 (MOLT-4): > 100 µM (inactive)
GI50 (Malme-3M): > 100 µM (inactive)
GI50 (NCI-H226): > 100 µM (inactive)
GI50 (NCI-H23): > 100 µM (inactive)
GI50 (NCI-H460): 26.5 µM (inactive)
GI50 (NCI/ADR-RES): > 100 µM (inactive)
GI50 (OVCAR-3): > 100 µM (inactive)
GI50 (OVCAR-4): > 100 µM (inactive)
GI50 (OVCAR-5): > 100 µM (inactive)
GI50 (OVCAR-8): > 100 µM (inactive)
GI50 (PC-3): > 100 µM (inactive)
GI50 (RPMI-8226): > 100 µM (inactive)
GI50 (RXF 393): < 0.01 µM (active)
GI50 (SF-268): > 100 µM (inactive)
GI50 (SF-295): > 100 µM (inactive)
GI50 (SF-539): > 100 µM (inactive)
GI50 (SK-MEL-28): > 100 µM (inactive)
GI50 (SK-MEL-2): > 100 µM (inactive)
GI50 (SK-MEL-5): 15.3 µM (inactive)
GI50 (SK-OV-3): > 100 µM (inactive)
GI50 (SN12C): 59.3 µM (inactive)
GI50 (SNB-19): > 100 µM (inactive)
GI50 (SNB-75): 29.4 µM (inactive)
GI50 (SR): 8.17 µM (inactive)
GI50 (SW-620): > 100 µM (inactive)
GI50 (T47D): > 100 µM (inactive)
GI50 (TK-10): > 100 µM (inactive)
GI50 (U-251): > 100 µM (inactive)
GI50 (UACC-257): > 100 µM (inactive)
GI50 (UACC-62): > 100 µM (inactive)
GI50 (UO-31): 32.1 µM (inactive)

CC(=O)NC(CCCOC(C)=O)C(=O)NC(CCCOC(C)=O)C(=O)NC(CCCOC(C)=O)C(=O)NC(Cc1ccc([N+](=O)[O-])cc1)C(=O)NCC(=O)OCc1ccccc1 (stereo not drawn)
GI50 (786-0): > 100 µM (inactive)
GI50 (A498): > 100 µM (inactive)
GI50 (A549): > 100 µM (inactive)
GI50 (ACHN): > 100 µM (inactive)
GI50 (CAKI-1): > 100 µM (inactive)
GI50 (CCRF-CEM): > 100 µM (inactive)
GI50 (COLO 205): > 100 µM (inactive)
GI50 (DU-145): > 100 µM (inactive)
GI50 (EKVX): > 100 µM (inactive)
GI50 (HCC 2998): > 100 µM (inactive)
GI50 (HCT-116): > 100 µM (inactive)
GI50 (HCT-15): > 100 µM
GI50 (HOP-62): > 100 µM (inactive)
GI50 (HOP-92): > 100 µM (inactive)
GI50 (HT-29): > 100 µM (inactive)
GI50 (Hs-578T): > 100 µM (inactive)
GI50 (IGROV-1): > 100 µM (inactive)
GI50 (K562): > 100 µM (inactive)
GI50 (KM12): > 100 µM (inactive)
GI50 (LOX IMVI): > 100 µM (inactive)
GI50 (M14): > 100 µM (inactive)
GI50 (MCF7): > 100 µM (inactive)
GI50 (MDA-MB-231): > 100 µM (inactive)
GI50 (MDA-MB-435): > 100 µM (inactive)
GI50 (MOLT-4): > 100 µM (inactive)
GI50 (Malme-3M): > 100 µM (inactive)
GI50 (NCI-H226): > 100 µM (inactive)
GI50 (NCI-H23): > 100 µM (inactive)
GI50 (NCI-H460): > 100 µM (inactive)
GI50 (NCI-H522): > 100 µM (inactive)
GI50 (NCI/ADR-RES): > 100 µM (inactive)
GI50 (OVCAR-3): > 100 µM (inactive)
GI50 (OVCAR-4): > 100 µM (inactive)
GI50 (OVCAR-5): > 100 µM (inactive)
GI50 (OVCAR-8): > 100 µM (inactive)
GI50 (PC-3): > 100 µM (inactive)
GI50 (RPMI-8226): > 100 µM (inactive)
GI50 (RXF 393): > 100 µM (inactive)
GI50 (SF-268): > 100 µM (inactive)
GI50 (SF-295): > 100 µM (inactive)
GI50 (SF-539): > 100 µM (inactive)
GI50 (SK-MEL-28): > 100 µM (inactive)
GI50 (SK-MEL-2): > 100 µM (inactive)
GI50 (SK-MEL-5): > 100 µM (inactive)
GI50 (SK-OV-3): > 100 µM (inactive)
GI50 (SN12C): > 100 µM (inactive)
GI50 (SNB-19): > 100 µM (inactive)
GI50 (SNB-75): > 100 µM (inactive)
GI50 (SR): 74 µM (inactive)
GI50 (SW-620): > 100 µM (inactive)
GI50 (T47D): > 100 µM (inactive)
GI50 (TK-10): > 100 µM (inactive)
GI50 (U-251): > 100 µM (inactive)
GI50 (UACC-257): > 100 µM (inactive)
GI50 (UACC-62): > 100 µM (inactive)
GI50 (UO-31): > 100 µM (inactive)

CC(C)C1=CC23CCC4C(C)(C(=O)O)CCCC4(C)C2CC1C1C(=O)N(c2ccc(Cc4ccc(N5C(=O)C6C7CC8C9(C)CCCC(C)(C(=O)O)C9CCC8(C=C7C(C)C)C6C5=O)cc4)cc2)C(=O)C13 (stereo not drawn)
GI50 (786-0): 10.9 µM (inactive)
GI50 (A498): 8.51 µM (inactive)
GI50 (A549): 3.72 µM (inactive)
GI50 (ACHN): 5.41 µM (inactive)
GI50 (CCRF-CEM): 5.41 µM (inactive)
GI50 (COLO 205): 7.06 µM (inactive)
GI50 (DU-145): 10.3 µM (inactive)
GI50 (EKVX): 6.58 µM (inactive)
GI50 (HCC 2998): 10.1 µM (inactive)
GI50 (HCT-116): 4.39 µM (inactive)
GI50 (HCT-15): 10.6 µM
GI50 (HL-60): 9.35 µM (inactive)
GI50 (HOP-62): 11.6 µM (inactive)
GI50 (HOP-92): 20.1 µM (inactive)
GI50 (HT-29): 3.17 µM (inactive)
GI50 (Hs-578T): 10.7 µM (inactive)
GI50 (K562): 7.87 µM (inactive)
GI50 (KM12): 5.97 µM (inactive)
GI50 (M14): 9.44 µM (inactive)
GI50 (MCF7): 5.13 µM (inactive)
GI50 (MDA-MB-231): 15.7 µM (inactive)
GI50 (MDA-MB-435): 3.55 µM (inactive)
GI50 (MDA-N): 8.93 µM (inactive)
GI50 (MOLT-4): 5.5 µM (inactive)
GI50 (Malme-3M): 16.7 µM (inactive)
GI50 (NCI-H226): 13.6 µM (inactive)
GI50 (NCI-H23): 1.93 µM (inactive)
GI50 (NCI-H522): 8.18 µM (inactive)
GI50 (OVCAR-3): 10.7 µM (inactive)
GI50 (OVCAR-4): 14.4 µM (inactive)
GI50 (OVCAR-5): 20.8 µM (inactive)
GI50 (OVCAR-8): 5.26 µM (inactive)
GI50 (PC-3): 3.78 µM (inactive)
GI50 (RPMI-8226): 9.14 µM (inactive)
GI50 (RXF 393): 13 µM (inactive)
GI50 (SF-268): 8.81 µM (inactive)
GI50 (SF-539): 4.16 µM (inactive)
GI50 (SK-MEL-28): 10.9 µM (inactive)
GI50 (SK-MEL-2): 12 µM (inactive)
GI50 (SK-MEL-5): 12.4 µM (inactive)
GI50 (SN12C): 10.1 µM (inactive)
GI50 (SNB-19): 5.85 µM (inactive)
GI50 (SR): 5.75 µM (inactive)
GI50 (SW-620): 11.4 µM (inactive)
GI50 (T47D): 18.1 µM (inactive)
GI50 (TK-10): 15.6 µM (inactive)
GI50 (U-251): 3.94 µM (inactive)
GI50 (UACC-62): 11 µM (inactive)
GI50 (UO-31): 17.1 µM (inactive)

COc1ccc(-c2coc3cc(O)cc(O)c3c2=O)cc1 [BIOCHANIN]
GI50 (786-0): > 10 µM (inactive)
GI50 (A549): > 10 µM (inactive)
GI50 (ACHN): > 10 µM (inactive)
GI50 (CAKI-1): > 10 µM (inactive)
GI50 (CCRF-CEM): > 10 µM (inactive)
GI50 (COLO 205): > 10 µM (inactive)
GI50 (HL-60): > 10 µM (inactive)
GI50 (HOP-62): > 10 µM (inactive)
GI50 (IGROV-1): > 10 µM (inactive)
GI50 (K562): > 10 µM (inactive)
GI50 (M14): > 10 µM (inactive)
GI50 (MCF7): > 10 µM (inactive)
GI50 (MDA-MB-435): > 10 µM (inactive)
GI50 (MOLT-4): > 10 µM (inactive)
GI50 (Malme-3M): > 10 µM (inactive)
GI50 (NCI-H23): > 10 µM (inactive)
GI50 (NCI-H460): > 10 µM (inactive)
GI50 (NCI/ADR-RES): > 10 µM (inactive)
GI50 (OVCAR-4): > 10 µM (inactive)
GI50 (OVCAR-5): > 10 µM (inactive)
GI50 (RPMI-8226): > 10 µM (inactive)
GI50 (RXF 393): > 10 µM (inactive)
GI50 (SF-268): > 10 µM (inactive)
GI50 (SK-MEL-28): > 10 µM (inactive)
GI50 (SK-MEL-2): > 10 µM (inactive)
GI50 (SK-MEL-5): > 10 µM (inactive)
GI50 (SK-OV-3): > 10 µM (inactive)
GI50 (SNB-75): > 10 µM (inactive)
GI50 (SR): > 10 µM (inactive)
GI50 (SW-620): > 10 µM (inactive)
GI50 (T47D): > 10 µM (inactive)
GI50 (U-251): > 10 µM (inactive)
GI50 (UACC-62): > 10 µM (inactive)
